Assay results reported in US11229623B2 (GlaxoSmithKline Intellectual Property (No.2) Limited, priority 2016, dated 2022).
Where two headings read alike, the source gives them in different places.

Target: T1, human TRPV4 (Homo sapiens, UniProt Q9HBA0)
T1 construct: expressed in transfected cells; host or cells: BHK/AC9 cells transduced with BacMam virus
Experiment: FLIPR assay for hTRPV4 expressed in BHK cells: inhibition of Agonist Compound-induced calcium signal
Assay type: cell-based
Method: FLIPR Assay for hTRPV4 Expressed in BHK Cells:
TRPV4 channel activation results in an influx of divalent and monovalent cations including calcium. The resulting changes in intracellular calcium were monitored using a calcium specific fluorescent dye Fluo-4 (MDS Analytical Technologies). BHK/AC9 cells transduced with BacMam virus expressing the human TRPV4 gene at a MOI of 78 were plated in a 384 well poly-D lysine coated plate (15,000 cells/well in 50 μL culture medium containing DMEM/F12 with 15 mM HEPES, 10% FBS, 1% Penicillin-Streptomycin and 1% L-glutamine). Cells were incubated for 24 hours at 37° C. and 5% CO2. Culture medium was then aspirated using a Tecan plate-washer and replaced with 20 μL/well of dye loading buffer: HBSS, 500 μM Brilliant Black (MDS Analytical Technologies), and 2 μM Fluo-4 AM. Dye loaded plates were then incubated in the dark at room temperature for 1-1.5 hours.

[1] = hTRPV4 in BHK/AC9 cells, FLIPR calcium signal, agonist at EC80, reported as range class, read-out: IC50

T1 sequence (Q9HBA0 whole entry): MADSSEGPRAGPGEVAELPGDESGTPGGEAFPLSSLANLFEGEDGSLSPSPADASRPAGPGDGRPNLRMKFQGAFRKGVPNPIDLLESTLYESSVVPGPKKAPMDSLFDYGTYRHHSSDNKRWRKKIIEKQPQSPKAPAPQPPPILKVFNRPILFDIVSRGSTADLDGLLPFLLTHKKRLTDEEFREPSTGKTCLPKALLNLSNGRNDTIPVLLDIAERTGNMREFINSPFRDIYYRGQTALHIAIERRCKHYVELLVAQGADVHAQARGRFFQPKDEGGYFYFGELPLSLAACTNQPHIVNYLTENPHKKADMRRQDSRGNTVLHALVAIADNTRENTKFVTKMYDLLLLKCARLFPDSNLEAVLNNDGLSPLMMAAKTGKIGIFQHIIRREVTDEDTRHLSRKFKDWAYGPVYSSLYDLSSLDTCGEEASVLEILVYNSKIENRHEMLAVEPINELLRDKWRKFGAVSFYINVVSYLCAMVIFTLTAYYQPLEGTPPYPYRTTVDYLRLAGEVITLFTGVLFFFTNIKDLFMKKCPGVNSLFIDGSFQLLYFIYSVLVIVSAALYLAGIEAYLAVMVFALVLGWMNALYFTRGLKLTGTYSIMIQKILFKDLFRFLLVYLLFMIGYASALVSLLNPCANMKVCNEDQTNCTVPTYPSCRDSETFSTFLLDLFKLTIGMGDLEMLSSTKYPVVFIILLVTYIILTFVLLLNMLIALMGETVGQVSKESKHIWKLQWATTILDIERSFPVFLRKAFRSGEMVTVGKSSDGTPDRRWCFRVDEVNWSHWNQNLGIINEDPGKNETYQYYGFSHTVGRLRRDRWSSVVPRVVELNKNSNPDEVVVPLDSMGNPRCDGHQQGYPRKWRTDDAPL

Structure (SMILES)	IC50 [1]	IC50 (hTRPV4 FLIPR assay, average in at least one set of experimental runs, read-out: average IC50)
N#Cc1ccc(O[C@H]2CN(S(=O)(=O)c3ccc(C(F)(F)F)cc3C#N)C[C@@]2(O)CO)cc1F [Example 1, 4-(((3S,4R)-1-((2-cyano-4-(trifluoromethyl)phenyl)sulfonyl)-4-hydroxy-4-(hydroxymethyl)pyrrolidin-3-yl)oxy)-2-fluorobenzonitrile]	0.1 to 10 nM	
N#Cc1ccc(O[C@H]2CN(S(=O)(=O)c3ccc(Cl)cc3Cl)C[C@@]2(O)CO)cc1F [Example 2, 4-(((3S,4R)-1-((2,4-dichlorophenyl)sulfonyl)-4-hydroxy-4-(hydroxymethyl)pyrrolidin-3-yl)oxy)-2-fluorobenzonitrile]	0.1 to 10 nM	
N#Cc1ccc(O[C@H]2CN(S(=O)(=O)c3ccc(Cl)cc3C#N)C[C@@]2(O)CO)cc1F [Example 3, 4-(((3S,4R)-1-((4-chloro-2-cyanophenyl)sulfonyl)-4-hydroxy-4-(hydroxymethyl)pyrrolidin-3-yl)oxy)-2-fluorobenzonitrile]	0.1 to 10 nM	
O=S(=O)(c1ccc(Cl)cc1Cl)N1C[C@H](Oc2ccc(F)c(F)c2)[C@](O)(CO)C1 [Example 4, (3R,4S)-1-((2,4-dichlorophenyl)sulfonyl)-4-(3,4-difluorophenoxy)-3-(hydroxymethyl)pyrrolidin-3-ol]	10 to 100 nM	
N#Cc1ccc(O[C@H]2CN(S(=O)(=O)c3ccc(C(F)(F)F)nc3)C[C@@]2(O)CO)cc1F [Example 5, 2-fluoro-4-(((3S,4R)-4-hydroxy-4-(hydroxymethyl)-1-((6-(trifluoromethyl)pyridin-3-yl)sulfonyl)pyrrolidin-3-yl)oxy)benzonitrile]	100 to 1000 nM	
N#Cc1cc(C(F)(F)F)ccc1S(=O)(=O)N1C[C@H](Oc2ccc(Cl)cc2)[C@](O)(CO)C1 [Example 6, 2-(((3R,4S)-4-(4-chlorophenoxy)-3-hydroxy-3-(hydromethyl)pyrrolidin-1-yl)sulfonyl)-5-(trifluoromethyl)benzonitrile]	0.1 to 10 nM	3 nM
N#Cc1cc(C(F)(F)F)ccc1S(=O)(=O)N1C[C@H](Oc2ccc3nonc3c2)[C@](O)(CO)C1 [Example 7, 2-(((3R,4S)-4-(benzo[c][1,2,5]oxadiazol-5-yloxy)-3-hydroxy-3-(hydroxymethyl)pyrrolidin-1-yl)sulfonyl)-5-(trifluoromethyl)benzonitrile]	0.1 to 10 nM	
N#Cc1cc(Cl)ccc1S(=O)(=O)N1C[C@H](Oc2ccc(F)c(F)c2)[C@](O)(CO)C1 [Example 8, 5-chloro-2-(((3R,4S)-4-(3,4-difluorophenoxy)-3-hydroxy-3-(hydroxymethyl)pyrrolidin-1-yl)sulfonyl)benzonitrite]	0.1 to 10 nM	
N#Cc1ccc(O[C@H]2CN(S(=O)(=O)c3ccc(C(F)(F)F)cc3C#N)C[C@@]2(O)CO)c(F)c1 [Example 9, 2-(((3R,4S)-4-(4-cyano-2-fluorophenoxy)-3-hydroxy-3-(hydroxymethyl)pyrrolidin-1-yl)sulfonyl)-5-(trifluoromethyl)benzonitrile]	0.1 to 10 nM	
COc1cc(C#N)ccc1O[C@H]1CN(S(=O)(=O)c2ccc(C(F)(F)F)cc2C#N)C[C@@]1(O)CO [Example 10, 2-(((3R,4S)-4-(4-cyano-2-methoxyphenoxy)-3-hydroxy-3-(hydroxymethyl)pyrrolidin-1-yl)sulfonyl)-5-(trifluoromethyl)benzonitrile]	10 to 100 nM	
N#Cc1ccc(O[C@H]2CN(S(=O)(=O)c3ccc(C(F)(F)F)cc3C#N)C[C@@]2(O)CO)cc1C(F)(F)F [Example 11, 4-(((3S,4R)-1-((2-cyano-4-(trifluoromethyl)phenyl)sulfonyl)-4-hydroxy-4-(hydroxymethyl)pyrrolidin-3-yl)oxy)-2-(trifluoromethyl)benzonitrile]	10 to 100 nM	
CCOc1cc(C#N)ccc1O[C@H]1CN(S(=O)(=O)c2ccc(C(F)(F)F)cc2C#N)C[C@@]1(O)CO [Example 12, 2-(((3R,4S)-4-(4-cyano-2-ethoxyphenoxy)-3-hydroxy-3-(hydroxymethyl)pyrrolidin-1-yl)sulfonyl)-5-(trifluoromethyl)benzonitrile]	0.1 to 10 nM	
N#Cc1ncc(O[C@H]2CN(S(=O)(=O)c3ccc(C(F)(F)F)cc3C#N)C[C@@]2(O)CO)cn1 [Example 13, 5-(((3S,4R)-1-((2-cyano-4-(trifluoromethyl)phenyl)sulfonyl)-4-hydroxy-4-(hydroxymethyl)pyrrolidin-3-yl)oxy)pyrimidine-2-carbonitrile]	10 to 100 nM	
N#Cc1ccc(O[C@H]2CN(S(=O)(=O)c3ccc(C(F)(F)F)cc3C#N)C[C@@]2(O)CO)c(Cl)c1 [Example 14, 2-(((3R,4S)-4-(2-chloro-4-cyanophenoxy)-3-hydroxy-3-(hydroxymethyl)pyrrolidin-1-yl)sulfonyl)-5-(trifluoromethyl)benzonitrile]	0.1 to 10 nM	
N#Cc1cc(C(F)(F)F)ccc1S(=O)(=O)N1C[C@H](Oc2ccc(C#N)c(F)c2F)[C@](O)(CO)C1 [Example 15, 4-(((3S,4R)-1-((2-cyano-4-(trifluoromethyl)phenyl)sulfonyl)-4-hydroxy-4-(hydroxymethyl)pyrrolidin-3-yl)oxy)-2,3-difluorobenzonitrile]	0.1 to 10 nM	
Cc1cc(C#N)ccc1O[C@H]1CN(S(=O)(=O)c2ccc(C(F)(F)F)cc2C#N)C[C@@]1(O)CO [Example 16, 2-(((3R,4S)-4-(4-cyano-2-methylphenoxy)-3-hydroxy-3-(hydroxymethyl)pyrrolidin-1-yl)sulfonyl)-5-(trifluoromethyl)benzonitrile]	0.1 to 10 nM	
N#Cc1ccc(O[C@H]2CN(S(=O)(=O)c3ccc(C(F)(F)F)cc3C#N)C[C@@]2(O)CO)c(C(F)(F)F)c1 [Example 17, 2-(((3R,4S)-4-(4-cyano-2-(trifluoromethyl)phenoxy)-3-hydroxy-3-(hydroxymethyl)pyrrolidin-1-yl)sulfonyl)-5-(trifluoromethyl)benzonitrile]	0.1 to 10 nM	

The next lines start with the values.

IC50 [1]	IC50 (hTRPV4 FLIPR assay, average in at least one set of experimental runs, read-out: average IC50)	Structure (SMILES)
10 to 100 nM		N#Cc1ccc2cc(O[C@H]3CN(S(=O)(=O)c4ccc(C(F)(F)F)cc4C#N)C[C@@]3(O)CO)ccc2c1 [Example 18, 6-(((3S,4R)-1-((2-cyano-4-(trifluoromethyl)phenyl)sulfonyl)-4-hydroxy-4-(hydroxymethyl)pyrrolidin-3-yl)oxy)-2-naphthonitrile]
0.1 to 10 nM		N#Cc1cc(F)c(O[C@H]2CN(S(=O)(=O)c3ccc(C(F)(F)F)cc3C#N)C[C@@]2(O)CO)cc1F [Example 19, 4-(((3S,4R)-1-((2-cyano-4-(trifluoromethyl)phenyl)sulfonyl)-4-hydroxy-4-(hydroxymethyl)pyrrolidin-3-yl)oxy)-2,5-difluorobenzonitrile]
0.1 to 10 nM		N#Cc1cc(C(F)(F)F)ccc1S(=O)(=O)N1C[C@H](Oc2cc(F)c(C#N)c(F)c2)[C@](O)(CO)C1 [Example 20, 4-(((3S,4R)-1-((2-cyano-4-(trifluoromethyl)phenyl)sulfonyl)-4-hydroxy-4-(hydroxymethyl)pyrrolidin-3-yl)oxy)-2,6-difluorobenzonitrile]
10 to 100 nM		N#Cc1ccc(O[C@H]2CN(S(=O)(=O)c3ccc(C(F)(F)F)cc3C#N)C[C@@]2(O)CO)cc1OC(F)(F)F [Example 21, 4-(((3S,4R)-1-((2-cyano-4-(trifluoromethyl)phenyl)sulfonyl)-4-hydroxy-4-(hydroxymethyl)pyrrolidin-3-yl)oxy)-2-(trifluoromethoxy)benzonitrile]
0.1 to 10 nM		N#Cc1cc(Cl)ccc1S(=O)(=O)N1C[C@H](Oc2cc(F)c(F)c(F)c2)[C@](O)(CO)C1 [Example 22, 5-chloro-2-(((3R,4S)-3-hydroxy-3-(hydroxymethyl)-4-(3,4,5-trifluorophenoxy)pyrrolidin-1-yl)sulfonyl)benzonitrile]
0.1 to 10 nM		N#Cc1cc(Cl)ccc1S(=O)(=O)N1C[C@H](Oc2ccc(F)c(F)c2F)[C@](O)(CO)C1 [Example 23, 5-chloro-2-(((3R,4S)-3-hydroxy-3-(hydroxymethyl)-4-(2,3,4-trifluorophenoxy)pyrrolidin-1-yl)sulfonyl)benzonitrile]
0.1 to 10 nM		N#Cc1cc(Cl)ccc1S(=O)(=O)N1C[C@H](Oc2cc(F)c(F)cc2F)[C@](O)(CO)C1 [Example 24, 5-chloro-2-(((3R,4S)-3-hydroxy-3-(hydroxymethyl)-4-(2,4,5-trifluorophenoxy)pyrrolidin-1-yl)sulfonyl)benzonitrile]
0.1 to 10 nM		N#Cc1cc(C(F)(F)F)ccc1S(=O)(=O)N1C[C@H](Oc2ccc(F)c(F)c2)[C@](O)(CO)C1 [Example 25, 2-(((3R,4S)-4-(3,4-difluorophenoxy)-3-hydroxy-3-(hydroxymethyl)pyrrolidin-1-yl)sulfonyl)-5-(trifluoromethyl)benzonitrile]
10 to 100 nM		N#Cc1cc(C(F)(F)F)ccc1S(=O)(=O)N1C[C@H](Oc2cc(F)c(F)c(F)c2)[C@](O)(CO)C1 [Example 26, 2-(((3R,4S)-3-hydroxy-3-(hydroxymethyl)-4-(3,4,5-trifluorophenoxy)pyrrolidin-1-yl)sulfonyl)-5-(trifluoromethyl)benzonitrile]
0.1 to 10 nM		N#Cc1cc(C(F)(F)F)ccc1S(=O)(=O)N1C[C@H](Oc2cc(F)c(F)cc2F)[C@](O)(CO)C1 [Example 27, 2-(((3R,4S)-3-hydroxy-3-(hydroxymethyl)-4-(2,4,5-trifluorophenoxy)pyrrolidin-1-yl)sulfonyl)-5-(trifluoromethyl)benzonitrile]
10 to 100 nM		N#Cc1cc(C(F)(F)F)ccc1S(=O)(=O)N1C[C@H](Oc2ccc(F)c(F)c2F)[C@](O)(CO)C1 [Example 28, 2-(((3R,4S)-3-hydroxy-3-(hydroxymethyl)-4-(2,3,4-trifluorophenoxy)pyrrolidin-1-yl)sulfonyl)-5-(trifluoromethyl)benzonitrile]
